Results published in patent US8383183B2, “Sweetness enhancers, sweetness enhanced sweetener compositions, methods for their formulation, and uses” (The Coca-Cola Company, priority 2007, dated 2013).
Values joined by “and” are separate entries in the source; they are usually repeats but may differ in a detail not shown here. Equal entries are not always repeated.

Columns and labels:
[1] = Rate of dissolution in H2O at 25° C.; format: physicochemical
[2] = system: sweetness intensity of 6% sucrose; test: Sulfamate & 6% sucrose Sweetness Enhancement Test (sensory rating against 6-10% sucrose references); format: in vivo; set-up: key to Sweetness Intensity Rating (6-10), subject #1 / Sweetness Intensity Rating (6-10), subject #2 / Sweetness Intensity Rating (6-10), subject #3 / Sweetness Intensity Rating (6-10), subject #4 / Sweetness Intensity Rating (6-10), subject #5 / Average Intensity Rating: sweetness rated 6-10 relative to 6-10% sucrose references
Experimental: Sensory studies that were carried out on the N-substituted sulfamic acid salts included 1) preliminary sulfamate analogue Sweetness Detection Threshold (SDT) estimation, 2) refined Sweetness Detection Threshold (SDT) estimation, 3) N-substituted sulfamic acid salts mixed with 6% sucrose Sweetness Enhancement Test and 4) repeat of step 3. Reference samples were prepared at 6, 7, 8, 9 and 10% sucrose (w/v). […] Each of the ten samples was then individually rated for sweetness intensity on a scale of 6-10 relative to the 6-10% sucrose references.

sweet taste [3] = test: Preliminary sulfamate analogue Sweetness Detection Threshold (SDT) estimation, sip-and-spit, one experienced subject; format: in vivo; conditions: for sweet taste exhibited: 15.6-1,000 ppm solutions in water, one subject
Experimental: Sensory studies that were carried out on the N-substituted sulfamic acid salts included 1) preliminary sulfamate analogue Sweetness Detection Threshold (SDT) estimation, 2) refined Sweetness Detection Threshold (SDT) estimation, 3) N-substituted sulfamic acid salts mixed with 6% sucrose Sweetness Enhancement Test and 4) repeat of step 3. A 1,000 ppm sulfamate analogue solution was prepared by dissolution of 20 mg sulfamate analogue in 20 mL purified water. An aliquot (10 mL) of this solution was diluted to 20 mL with water to obtain a 500 ppm solution. Additional 1:1 serial dilutions step were used to obtain 250, 125, 62.5, 31.2 and 15.6 ppm solutions. These solutions were then tasted in ascending order of concentration by one experienced subject by using a sip-and-spit protocol. The subject's estimated SDT was determined to be at the lowest concentration at which sweetness was definitely observed.

sweet taste [4] = test: N-alkyl sulfamate SDT estimation, sip-and-spit, 5 experienced subjects; format: in vivo
Experimental: A 250 ppm solution of 4 was prepared by dissolution of 50 mg sulfamate in 200 mL purified water. An aliquot (100 mL) of this solution then was diluted to 200 mL with water to obtain a 125 ppm solution. Additional 1:1 serial dilution steps were used to prepare 62.5, 31.2 and 15.6 ppm solutions. These solutions then were tasted in ascending order of concentration by 5 experienced subjects by a sip-and-spit protocol.

[5] = 125 ppm in 6% sucrose, single test sample, listed as NS

Compound: C=C1C[C@@]23CC[C@H]4[C@@](C)(CCC[C@@]4(C)C(=O)O[C@@H]4O[C@H](CO)[C@@H](O)[C@H](O)[C@H]4O)[C@@H]2CC[C@]1(O[C@@H]1O[C@H](CO)[C@@H](O)[C@H](O[C@@H]2O[C@H](CO)[C@@H](O)[C@H](O)[C@H]2O)[C@H]1O[C@@H]1O[C@H](CO)[C@@H](O)[C@H](O)[C@H]1O)C3 [Form 1, rebaudioside A]
- Rate of dissolution in H2O at 25° C. ([1]; in 60 minutes): Very low (<0.2%

Compound: C=C1C[C@@]23CC[C@H]4[C@@](C)(CCC[C@@]4(C)C(=O)O[C@@H]4O[C@H](CO)[C@@H](O)[C@H](O)[C@H]4O)[C@@H]2CC[C@]1(O[C@@H]1O[C@H](CO)[C@@H](O)[C@H](O[C@@H]2O[C@H](CO)[C@@H](O)[C@H](O)[C@H]2O)[C@H]1O[C@@H]1O[C@H](CO)[C@@H](O)[C@H](O)[C@H]1O)C3 [Form 2, rebaudioside A]
- Rate of dissolution in H2O at 25° C. ([1]; in 5 minutes): Intermediate (<30%

Compound: C=C1C[C@@]23CC[C@H]4[C@@](C)(CCC[C@@]4(C)C(=O)O[C@@H]4O[C@H](CO)[C@@H](O)[C@H](O)[C@H]4O)[C@@H]2CC[C@]1(O[C@@H]1O[C@H](CO)[C@@H](O)[C@H](O[C@@H]2O[C@H](CO)[C@@H](O)[C@H](O)[C@H]2O)[C@H]1O[C@@H]1O[C@H](CO)[C@@H](O)[C@H](O)[C@H]1O)C3 [Form 3, rebaudioside A]
- Rate of dissolution in H2O at 25° C. ([1]; in 5 minutes): High (>30%

Compound: C=C1C[C@@]23CC[C@H]4[C@@](C)(CCC[C@@]4(C)C(=O)O[C@@H]4O[C@H](CO)[C@@H](O)[C@H](O)[C@H]4O)[C@@H]2CC[C@]1(O[C@@H]1O[C@H](CO)[C@@H](O)[C@H](O[C@@H]2O[C@H](CO)[C@@H](O)[C@H](O)[C@H]2O)[C@H]1O[C@@H]1O[C@H](CO)[C@@H](O)[C@H](O)[C@H]1O)C3 [Form 4, rebaudioside A]
- Rate of dissolution in H2O at 25° C. ([1]; in 5 minutes): High (>35.0%

Compound: CC1CCCCC1NS(=O)(=O)[O-].[Na+] (stereo not shown) [sulfamate 2, sodium 1H-2-methyl cyclohexyl sulfamate]
- sweetness intensity of a 6.0% sugar solution increased to the equivalent of ([2]; about 430 ppm in 6.0% sugar solution): about 7.3 % sugar solution
- sweet taste exhibited (sweet taste [3]): exhibit sweet taste
- off-taste (sweet taste [3]; 1,000 ppm in water): some bitterness off-taste problems
- taste (sweet taste [3]; 1,000 ppm in water): slight sweet taste
- sweet taste of the sulfamate by itself (sweet taste [3]; no sugar): not sweet by itself

Compound: CC(C)(C)CCNS(=O)(=O)[O-].[Na+] [sulfamate 3A, sodium 1H-3,3-dimethyl butyl sulfamate]
- sweetness intensity of a 6.0% sugar solution increased to the equivalent of ([2]; about 406 ppm in 6.0% sugar solution): about 7.0 % sugar solution
- sweet taste of the sulfamate by itself (sweet taste [3]; no sugar): not sweet by itself

Compound: CC(C)(C)CCNS(=O)(=O)[O-].[K+] [sulfamate 3B, potassium 1H-3,3-dimethyl butyl sulfamate]
- sweetness intensity of a 6.0% sugar solution increased to the equivalent of ([2]; about 200 ppm in 6.0% sugar solution): about 7.0 % sugar solution
- sweet taste of the sulfamate by itself (sweet taste [3]; in amounts up to 1000 ppm): not sweet by itself

Compound: O=S(=O)([O-])NC1CC2CCC1C2.[Na+] (stereo not shown) [sulfamate 4, sodium bicycle[2.2.1]heptan-2-yl sulfamate]
- Average Intensity Rating ([2]; 125 ppm in 6% sucrose, single test sample, mean of 5 subjects, listed as NS): 8.2 and 8.4 and 7.2 and 8.6
- Sweetness Intensity Rating (6-10), subject #1 [2, 5]: 8 and 9 and 7
- Sweetness Intensity Rating (6-10), subject #2 [2, 5]: 8 and 9 and 7 and 10
- Sweetness Intensity Rating (6-10), subject #3 [2, 5]: 8 and 7
- Sweetness Intensity Rating (6-10), subject #4 [2, 5]: 9 and 7
- Sweetness Intensity Rating (6-10), subject #5 [2, 5]: 8 and 7
- average sweetness intensity rating, with 6% Sucrose Test Average ([2]; 125 ppm in 6% sucrose, scale 6-10 relative to 6-10% sucrose references, mean of four test samples): 8.1
- sweetness intensity of a 6.0% sugar solution increased to the equivalent of ([2]; about 125 ppm in 6.0% sugar solution): about 8.1 % sugar solution
- sweet taste exhibited (sweet taste [3]): exhibit sweet taste
- off-taste (sweet taste [3]; 1,000 ppm in water): no off-taste
- taste (sweet taste [3]; 1,000 ppm in water): strong sweet taste
- sweet taste of the sulfamate by itself (sweet taste [3]; no sugar): very faint sweet taste
- taste (sweet taste [3]; ca. 62 ppm in water): weak sweet taste
- Sweetness Detection Threshold (SDT) (sweet taste [4]; 5 subjects, in water): < 125 ppm
- taste (sweet taste [4]; 15.6 ppm solution, all 5 subjects): absence of taste
- taste (sweet taste [4]; 31.2 ppm solution, all 5 subjects): absence of taste
- taste (sweet taste [4]; 62.5 ppm solution, 3 out of 5 subjects): very faint sweetness
- sweetness, sugar equivalent (sweet taste [4]; 125 ppm solution, 4 out of 5 subjects): less than 1 % sugar equivalent
- sweetness comparable to that of sucrose (sweet taste [4]; 250 ppm sample, all 5 subjects): ca. 2 % sucrose
- equivalent sweetness intensity by itself (sweet taste [4]; about 62 ppm, by itself): < 1 % sugar solution

Compound: sodium 1H-1,3,5-triazolyl sulfamate [sulfamate 1]
- sweetness intensity of a 6.0% sugar solution increased to the equivalent of ([2]; about 372 ppm in 6.0% sugar solution): about 7.1 % sugar solution
- sweet taste of the sulfamate by itself (sweet taste [3]; no sugar): not sweet by itself

Compound: sodium 1H-thiazolyl sulfamate [sulfamate 5]
- sweetness intensity of a 6.0% sugar solution increased to the equivalent of ([2]; about 404 ppm in 6.0% sugar solution): about 6.9 % sugar solution
- sweet taste of the sulfamate by itself (sweet taste [3]; no sugar): not sweet by itself
